Laboratory results: article PMC3025356, “Mechanism of the Ca^2+-Dependent Interaction between S100A4 and Tail Fragments of Nonmuscle Myosin Heavy Chain IIA” (Journal of Molecular Biology, 2011)

Tests used:
S100A4 [1] = target: T1, S100A4 (Homo sapiens, UniProt P26447); assay: Quin-2 fluorescence, Ca^2+ dissociation from S100A4 in the presence of target peptides; assay type: binding; conditions: 50 μM peptide premixed with 10 μM S100A4; 100 mM NaCl, 10 mM Hepes, 100 μM Ca^2+, pH 7.5, 20 °C
T1 construct: We used full-length S100A4 for this analysis; made in house; host or cells: Escherichia coli BL21(DE3)
T1 sequence (P26447 whole entry): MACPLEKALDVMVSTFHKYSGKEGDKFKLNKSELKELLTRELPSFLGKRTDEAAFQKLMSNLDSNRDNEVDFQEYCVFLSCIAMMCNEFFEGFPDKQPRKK
Method: Ca^2+ dissociation measurements for wild-type S100A4, using Quin-2 as described above, were repeated as a control for the effect of target peptides on this process. On mixing 10 μM S100A4 in the presence of Ca^2+ with 100 μM Quin-2, the observed profile was fitted to a single exponential with kobs = 17 s^− 1 (Fig. 5a; cf. k− 1 in Scheme 1).
Fig. 5 Dissociation of Ca^2+ from S100A4 in the absence and in the presence of target peptides monitored using Quin-2 fluorescence. (a) Mixed with 100 μM Quin-2 was 10 μM S100A4 + 50 μM Ca^2+ (stopped-flow reaction chamber concentrations). A superposed fit to a single exponential yields kobs = 17 s^− 1. […] (d) As in (a), but with 2.5 μM M200 premixed with 5 μM S100A4. A biphasic exponential fit yielded rate constants of 13 s^− 1 (A = 26%) and 0.30 s^− 1 (A = 74%). […] Experiments were carried out in either 20 mM NaCl, 20 mM Tris, 1 mM DTT, and 100 μM Ca^2+ at pH 7.5 and 20 °C (a and b; cf. Malashkevich et al.[17]), or 100 mM NaCl, 10 mM Hepes, and 100 μM Ca^2+ at pH 7.5 and 20 °C (c and d). […] Rate constants were unaffected by the inclusion of 1 mM Mg^2+.
Stopped-flow measurements were carried out using an SX18-MV apparatus (Applied Photophysics Ltd., Leatherhead, UK) with a dead time of 1.5 ms.[40] Records were generally captured on a logarithmic time base. Absorption (turbidity) measurements were usually recorded using a 10-mm pathlength, while fluorescence was recorded with a 2-mm pathlength for excitation and emission. The stated concentrations of components refer to the reaction chamber after mixing, unless otherwise indicated. Tyrosine fluorescence was excited at 280 nm, and the emission was collected through a UG11 bandpass filter plus a 305-nm longpass filter.[18] Fluorescein fluorescence was excited at 480 nm, and the emission was detected through a 515-nm longpass filter. Quin-2 fluorescence was measured by excitation at 336 nm, and emission was collected with a 455-nm longpass filter. For simultaneous recording of light scatter, a second channel was monitored through a UG11 filter. […]

S100A4 [2] = target: T1, S100A4; assay: Competition with F-M16^N binding to S100A4 (fluorescence anisotropy); conditions: read-out: Kd (K2) by competition
Method: Titration (circles) was carried out in 20 mM NaCl, 10 mM Hepes, 1 mM Mg^2+, and 100 μM Ca^2+ at pH 7.5 and 20 °C. […] (squares).
Fluorescence spectra and anisotropy measurements were recorded using an SLM 8000 spectrofluorimeter (SLM, Urbana, IL). Fluorescein anisotropy measurements were carried out in L-format using a 515-nm emission filter. The four combinations of vertical and horizontal polarisers (vv, vh, hh, and hv) were each recorded for 30 s, and then the initial setting (vv) was re-read to check for signal stability. Calculations of the total fluorescence (Ivv + 2Ivh) and anisotropy (Ivv − Ivh/(Ivv + 2Ivh)), corrected for the g factor (hh/hv), were performed using an Excel spreadsheet. […] Note that the small correction for the emission intensity weighting to the observed anisotropy was not applied to these competitive titrations as the error will tend to cancel.

S100A4 [3] = target: T1, S100A4; assay: Competition of M32/M16^N with M200 for S100A4 (turbidity); assay type: biochemical; conditions: 250 μM peptide, 5 μM M200, 10 μM S100A4, Ca^2+
Method: Fig. 9 Dissociation of M200 filaments by S100A4. (a) Initially, M200 was added (i) from a concentrated stock in 0.5 M NaCl to give a final concentration of 5 μM M200 (with respect to the polypeptide chain) in 100 mM NaCl, 10 mM Hepes, and 0.1 mM Ca^2+ at pH 7.5 and 20 °C. A biphasic rise in turbidity was recorded for 200 s (continuous line). Then 10 μM S100A4 (with respect to monomer concentration) was added (ii), followed by 0.2 mM EGTA (iii) and 1 mM Ca^2+ (iv). […] (b) M200 was diluted (i) into 100 mM NaCl to form filaments as in (a), then 5 μM S100A4 was added (ii), causing a 54% drop in turbidity. A further 5 μM S100A4 (iii) caused turbidity to fall to almost zero. (c) Stopped-flow records monitoring the dissociation of 5 μM M200 filaments on jumping [NaCl] from 100 mM to 120 mM NaCl. Other components of the buffer were 20 mM Hepes, 1 mM Mg^2+, and 100 μM Ca^2+ at pH 7.5 and 20 °C. […] In the presence of 20 μM S100A4 (lower trace), the turbidity decreased by 87% with a rate constant of 0.2 s^− 1.
Further information on Scheme 2 was obtained from competition assays. […] An independent estimate of K5 based on the Ca^2+ dependence of the turbidity assay yielded a value of 0.003 μM (see Supplementary Data).
The decrease in fluorescence, […]
that F-M16N binding was slightly faster. […]
A second estimate was calculated from the apparent Ca2+ binding constant observed in the turbidity assay […]

S100A4 [4] = target: T1, S100A4; conditions: peptide residues 1908–1923; cited from earlier work
Source text: Our kinetic studies are also used to redefine the minimal binding fragment of the NM-MHC IIA tail (Fig. 1). Using a series of overlapping fragments and a blot overlay assay, Kriajevska et al. previously mapped the S100A4 binding site of nonmuscle myosin IIA to a 29-amino-acid region near the C-terminus (residues 1908–1936 in the current numbering system).[9]

kobs, Ca^2+ dissociation with peptide (S100A4 [1]): 16 s^− 1 | Kd (S100A4 [2]): ≥ 100 µM | inhibition of turbidity change amplitude (S100A4 [3]): no effect
Compound: CSCC[C@H](NC(=O)[C@H](C)NC(=O)[C@H](CC(=O)O)NC(C)=O)C(=O)N[C@@H](CC(N)=O)C(=O)N[C@@H](CCCNC(=N)N)C(=O)N[C@@H](CCC(=O)O)C(=O)N[C@H](C(=O)N[C@@H](CO)C(=O)N[C@@H](CO)C(=O)N[C@@H](CC(C)C)C(=O)N[C@@H](CCCCN)C(=O)N[C@@H](CC(N)=O)C(=O)N[C@@H](CCCCN)C(=O)N[C@@H](CC(C)C)C(=O)N[C@@H](CCCNC(=N)N)C(=O)N[C@@H](CCCNC(=N)N)C(N)=O)C(C)C [M16^N]
difference in binding constant vs longer fragments (1851–1960, 1893–1923) (S100A4 [4]): ~2 -fold
